Assay [1] has as its system C. elegans. In words: Quantitative RT-PCR in worms. In kind it is in vivo. As for the experimental part:
(§1) mRNA and mtDNA Analysis. Total RNA was prepared using TRIzol (Invitrogen) according to the manufacturer's instructions. RNA was treated with DNase, and 2 μg of RNA was used for reverse transcription (RT). cDNA was purified on QIAquick PCR cleanup columns (Qiagen, Valencia, Calif., USA). 50× diluted cDNA was used for RT-quantitative PCR (RT-VCR) VCR) reactions (Bai et al., 2007). The RT-qPCR reactions were performed using the Light-Cycler system (Roche Applied Science) and a qPCR Supermix (Qiagen) with the primers for mice summarized in Table 1 and 4, and with the primers for worms summarized on Table 7. mtDNA quantification was performed as described (Lagouge et al., 2006) with the primers indicated in Table 2 and 5.

For assay [2], the system named is C57Bl/6J mice. In words: Sirtuin activity and mitochondrial biogenesis in tissues after chronic NR feeding. In kind it is in vivo. The protocol: as §1
Immunoprecipitation, SDS-PAGE, Western Blotting. Cells were lysed in lysis buffer (50 mM Tris, […], EDTA 1 mM, NP40 1%, nicotinamide 5 mM, Na-butyrate 1 in M, protease inhibitors pH7.4). Proteins were separated by SDS-PAGE and transferred onto nitrocellulose membranes. The origin of the primary and secondary antibodies used can be found as supplemental experimental procedures. Reactions were developed by enhanced chemiluminescence (Amersham, Little Chalfont, UK), PGC-1α, FOXO1 and Ndufa9 acetylation levels were analyzed by immunoprecipitation from cellular or nuclear lysates of tissues with anti-PGC-1α (Millipore), anti-FOXO1 (Cell Signaling, Danvers, Mass., USA) and anti-Ndufa9 (Abcam) antibody followed by Western blot using an acetyl-lysine antibody (Cell Signaling) that was normalized to total PGC-1a/FOXO1/Ndufa9 levels (Lagouge et al., 2006; Rodgers et al., 2005). In HEK293T cells HA-tagged PGC-1α was overexpressed and was immunoprecipitated using an anti-HA. In C2C12 myotubes, FLAG-HA tagged PGC-1α was introduced through adenoviral delivery 2 days before treatments, then IP was performed using anti-FLAG antibody and samples were processed as described. All blots were quantified by densitometry using ImageJ software. Poly(ADP-Ribose) detection was performed as previously described with slight modifications (Bai et al., PARP-1 inhibition increases mitochondrial metabolism through SIRT1 activation. Cell Metab 13, 461-468. (2011)) Briefly, PAR was detected by using a monoclonal anti-PAR antibody (Alexis, Lausanne Switzerland) by Western blotting of total protein lysates, using either […] of total worm protein lysates, […] of liver protein lysate or 200 g of muscle total protein extracts. PGC-1 acetylation was determined using PGC-1 immunoprecipitates from 2 mg of protein extracts, as described in Canto et al. (Canto et al., AMPK regulates energy expenditure by modulating NAD+ metabolism and SIRT1 activity. Nature 458, 1056 (2009)).
(§2) Mitochondrial DNA Measurement The assay was performed as described (Lagouge et al., 2006). DNA. was extracted using the standard proteinase K digestion following phenol-chloroform extraction. Mitochondrial and genomic DNA was determined using specific primers in qPCR reactions (primers summarized in Table 2 and 5.) and was expressed as percentage of WT.
Determination of Protein Acetylation Status PGC-1α, FOXO1 and Ndufa9 acetylation was analyzed by immunoprecipitation of PGC-1, FOXO1 and Nduf9a from nuclear lysates of tissues with anti-PGC-1α (Millipore), anti-FOXO1 (1 mg, Cell Signaling, Danvers, Mass., USA), or Ndufa9 (Abeam) antibody followed by Western blot using an acetyl-lysine antibody (Cell Signaling) that was normalized to total PGC-1α/FOXO1/Ndufa9 (Canto et al., 2009). Tribulin acetylation was assessed by Western blotting of total protein samples by acetylated tubulin-specific antibody (Sigma) that was then normalized for total tubrilin (Santa Cruz).

The test system of assay [3] is C2C12 myotubes. The experiment in a line: Mitochondrial gene expression, mtDNA and membrane potential in C2C12 myotubes. It counts as cell-based. As for the experimental part: Cell Culture, Transfection, Adenoviral Infection and Mitochondrial Characterization. HEK293T, MEF and C2C12 cells were cultured in DMEM (4.5 g/l glucose, 10% FCS). PARP-1^+/+ and PARP-1^−/− MEFs were prepared as described in (Menissier-de Murcia et al., 1997). SIRT1 and MEFs were kindly provided by Fred Alt (Chea et al., 2005). SIRT3 MER were established according to standard techniques from conditional SERT3^−/− mice. (Picard, F., Gehin, M., Annicotte, J., Rocchi, S., Champy, M. F., O'Malley, B. W., Chambon, P., and Auwerx, J. (2002). SRC-1 and TIF2 control energy balance between white and brown adipose tissues. Cell 111, 931-941.) Deletion of the SIRT3 gene was induced via infection with adenovirus encoding for the Cre recombinase. HEK293T cells were transfected using JetPei reagent (Polyplus Transfections, Illkirch, France) according to the manufacturer's instructions. C2C12 cells were differentiated in DMEM (4.5 g/L glucose, 2% horse serum) after reaching confluency for 2 days, followed by 2 days of PJ34 treatment (10 μM). PARP-1 shRNA constructs were described in (Shah et al., 2005). Human PARP-1 and siRNAs were obtained from Dharmacon (Thermo Scientific). The adenovirus encoding for FLAG-HA-PGC-1α, control and SIRT1 shRNAs were a kind gift from Pere Puigserver and were used (MOI=100) in C2C12 myotubes as described (Canto et al., 2009). Mitochondrial charge determination was performed as described (Bai et al., 2001) and DNA strand breaks were quantified by TUNEL assays according to the manufacturer's instructions (Millipore).
as §1, §2

Turning to `NC(=O)c1ccc[n+]([C@@H]2O[C@H](CO)[C@@H](O)[C@H]2O)c1` [NR, nicotinamide riboside], in assay [1] (day 3 of adulthood), the “expression of genes of mitochondrial oxidative metabolism (cts-1, cox-4)” value is given as “trend for increased cts-1 expression”. Moreover, in assay [1] (in vivo), the daf-16 expression entry is given as “without affecting daf-16 mRNA levels” and the sod-3 expression result was “significantly higher sod-3 expression”. Further, in assay [2] (HFD 16 weeks), the “expression of oxidative metabolism regulators and mitochondrial genes in quadriceps muscle” value is “either an elevated expression or a strong tendency towards an increase”; the “mitochondrial DNA content in muscle” value is recorded as “increased in muscle”; the “mitochondrial proteins (Complex V ATP synthase subunit α, porin) in muscle, liver and BAT” value is given as “prominent increase in mitochondrial proteins”; the “mitochondrial proteins in brain or WAT” value is on record as “such change was not observed in brain or WAT”. Also, the “acetylation of SIRT1 and SIRT3 targets (FOXO1, SOD2) in skeletal muscle, liver and BAT” value in assay [2] (HFD 16 weeks, NR 400 mg/kg/day) is on record as “prominent deacetylation”. The “acetylation status of the SIRT2 target tubulin” value in assay [2] (NR 400 mg/kg/day) is “could not detect changes”.

As to `CN(C)CC(=O)Nc1ccc2[nH]c(=O)c3ccccc3c2c1` [PJ34], in assay [3] (1 μM, 48 h), the “mitochondrial DNA content” value is reported as “higher mitochondrial DNA content” and the mitochondrial membrane potential result is recorded as “higher mitochondrial potential”. Further, the “expression of mitochondrial genes (Ndufa2, Ndufa3, MCAD, PDK4, UCP3)” value in assay [3] (48 hrs) was “increased expression of several mitochondrial genes”. Also, in assay [3] (SIRT1 shRNA), the “UCP3 mRNA expression with SIRT1 knock-down” value is on record as “persistent increase in UCP3 mRNA expression” and the “mitochondrial gene expression with SIRT1 knock-down” value is recorded as “largely blunted”.

These data come from patent publication US10709724B2, “Methods of treating mitochondrial dysfunction” (Ecole Polytechnique Federale de Lausanne (EPFL), priority 2011, dated 2020).
